Data on 1 substance can be found in patent US20220145303A1, “FRAGILE X MENTAL RETARDATION PROTEIN INTERFERING OLIGONUCLEOTIDES AND METHODS OF USING SAME” (Nogra Pharma Limited, priority 2019, published 2022).

In data set [1] the test system is FMRP. Put plainly: FMRP knockdown: Western blot of FMRP after transfection with FMRP antisense or sense oligonucleotide. Format: cell-based, human. The settings on record: 48 hours, AS 0.5-100 nM, S 100 nM. The method, then: Total proteins were extracted from mouse colonic tissues, and lysed on ice in buffer containing 10 mM HEPES [pH 7.9], 10 mM KCl, 0.1 mM EthyleneDiamineTetraacetic Acid (EDTA), 0.2 mM Ethylene Glycol-bis (β-aminoethyl ether)-N,N,N′,N′-Tetraacetic Acid (EGTA) and 0.5% Nonidet P40 supplemented with 1 mM dithiothreitol (DTT), […], […], 1 mM phenylmethylsulfonyl fluoride (PMSF), 1 mM Na3VO4, and 1 mM NaF. Lysates were clarified by centrifugation and separated on sodium dodecyl sulphate (SDS)-polyacrylamide gel electrophoresis. Blots were incubated with antibodies against: FMRP (Cell Signaling, Danvers, Mass.), followed by a secondary antibody conjugated to horseradish peroxidase (Dako, Milan, Italy). After analysis, each blot was stripped and incubated with a mouse-anti-human monoclonal β-actin antibody (Sigma-Aldrich) to ascertain equivalent loading of the lanes.
Human CRC cell lines, DLD-1 and HCT-116, were obtained from the American Type Culture Collection (ATCC, Manassas, Va.) and cultured in RPMI 1640 (DLD-1) and McCoy's 5A (HCT-116) medium, respectively. All media were supplemented with 10% fetal bovine serum, 1% penicillin/streptomycin (both from Lonza, Verviers, Belgium). The normal human colon epithelial cell line (HCEC-1ct) was obtained from EVERCYTE GmbH (Vienna, Austria) and cultured in ColoUp® medium (EVERCYTE GmbH). Cells were maintained in a 37° C., 5% CO2, fully humidified incubator. Cell line lysates were prepared and analyzed by SDS-polyacrylamide gel electrophoresis/immunoblot using methods as previously described in Example 2. For immunofluorescent staining, cell lines were fixed with 3.7% formaldehyde for 10 minutes at 4° C., permeabilized with 0.1% Triton for 10 minutes at room temperature and blocked (1% bovine serum albumin, Tween 0.1%, glycine 2%) for 1 hour at room temperature. Fixed and blocked cells were incubated with anti-FMRP monoclonal antibody (1:500, Cell Signaling, Danvers, Mass.) overnight at 4° C. After washing with PBS, secondary antibody goat anti-rabbit Alexa 488 (1:2000, A11008; Invitrogen) was applied for 1 hour at room temperature. Slides were washed with PBS, mounted using Prolong Gold® anti-fade reagent with 4′,6-diamidino-2-phenylindole (P36931; Invitrogen) and analyzed by a Leica DMI4000 B microscope with Leica application suite software (V4.6.2).
Phosphorothioate single-stranded antisense oligonucleotides complementary to human FMRP [5′-[…]-3′ (SEQ ID NO: 6)] and single-stranded sense oligonucleotides [5′-[…]-3′ (SEQ ID NO: 15)] were synthesized. CRC cell lines and HCEC-1ct cells were transfected with either FMRP antisense (AS)(final concentration 0.5-100 nM) or FMRP sense oligonucleotide (S) (final concentration100 nM) for 24 and 48 hours, using Opti-MEM medium and lipofectamine 3000 reagent (Thermo Fisher Scientific, Waltham, Mass., USA) according to the manufacturer's instructions.

Data set [2] has as its system caspase 3. The data set is described as follows: Activated caspase 3 by flow cytometry in CRC cells. Format: cell-based, human. The settings on record: oligonucleotide 100 nM 36 hours, staurosporin 1 μM, FIGS. 4A, 4B. As for the experimental part: Immunotools, Friesoythe, Germany) according to the manufacturer's instructions, and incubated with […] of propidium iodide (PI) for 30 min at 4° C. Cells were also transfected with either FMRP sense oligonucleotide or FMRP AS oligonucleotide (final concentration 100 nM) for 36 hours and analyzed for activated caspase 3 and caspase 8. […] Additionally, 36 hours (FIGS. 4F and 4G) or 48 hours post-transfection (FIGS. 4D and 4E), cells were pulsed with […] bromodeoxyuridine for 60 minutes, fixed in 70% cold ethanol, and stored at −20° C. for at least 3 hours. […] Fluorescence was measured using Gallios Flow Cytometer (Beckman Coulter, Life Sciences, Pasadena, Calif., USA) and analyzed using Kaluza software (Beckman Coulter). Viable cells were considered as AV^−/PI^− cells.
For orientation: In flow cytometry, cells or beads pass a laser one at a time.

The subject of data set [3] is RIPK3. Put plainly: Western blot of phospho-RIPK3 after FMRP antisense treatment. Format: cell-based. The settings on record: human CRC cell lines, 24 hours, FIGS. 6A, 6C. As for the experimental part:
To confirm the association of FMRP with components of the necroptosis pathway, cells were left untreated or transfected with either FMRP antisense oligonucleotide (final concentration 0.5 nM and 100 nM) or FMRP sense oligonucleotide (final concentration 100 nM); incubated with a pMLKL inhibitor (necrosulfonamide, NSA; final concentration 1 μM)(Calbiochem); or a pRIPK1 inhibitor (necrostatinl, NEC1; final concentration 10 μM)(Cayman Chemical, Ann Arbor, Mich. USA). After 24 hours cells were collected and analyzed by Western blot, or stained with FITC-Annexin V and PI for flow cytometry analysis, as previously described in Examples 1-3.
(In western blotting, separated proteins are transferred to a membrane and probed.)

The subject of data set [4] is E-cadherin. The data set is described as follows: Western blot of E-cadherin in HCT-116 cells. The settings on record: HCT-116, AS 0.5 nM, 48 hours, vs untreated or sense, FIGS. 8E, 8F. Format: cell-based, human. As for the experimental part: (§1) To determine whether FMRP regulates levels of E-cadherin and/or β-catenin, key proteins associated with cellular adhesion, cytoskeletal remodeling, and inhibition of tumor migration and invasion, cells were left untreated (U), or transfected with either FMRP sense (S) oligonucleotide (final concentration 0.5 nM) or FMRP antisense (AS) oligonucleotide (final concentration 0.5 nM) for 48 hours.
(§2) Recent studies have described a novel tumor suppressor function of MCC in the regulation of E-cadherin/β-catenin complex-mediated cell-cell adhesion in colorectal cells. To investigate whether MCC mediates the observed increase of E-cadherin and β-catenin expression in HCT-116 cells transfected with antisense FMRP oligonucleotide (e.g., FIGS. 8E-8G), cells were left untreated (U) or transfected with sense FMRP oligonucleotide (final concentration 0.5 nM), or antisense FMRP oligonucleotide (final concentration 0.5 nM), and/or control siRNA (siRNA Ctrl) or siRNA specific for MCC (siRNA MCC) for 48 hours.

For data set [5], the system named is β-catenin. Put plainly: Western blot of β-catenin in HCT-116 cells. It counts as cell-based, human. The settings on record: HCT-116, AS 0.5 nM, 48 hours, vs untreated or sense, FIGS. 8E, 8G. As for the experimental part:
as §1, §2

Data set [6] has as its system MCC. Put plainly: Western blot of MCC in HCT-116 cells. Format: cell-based, human. The settings on record: HCT-116, AS 0.5 nM, 48 hours, vs untreated or sense, FIGS. 9A, 9B. As for the experimental part:
To investigate whether FMRP regulates MCC, a protein known to interact with the E-cadherin/β-catenin complex, HCT-116 cells were left untreated (U) or transfected with sense FMRP oligonucleotide (S) (final concentration 0.5 nM) or antisense FMRP oligonucleotide (AS) (final concentration 0.5 nM) for 48 hours.

As to “5′-TCCACCACCAGCTCCTCCAT-3′ (all phosphorothioate, sugars by position and methylation of C not given here) [FMRP antisense oligonucleotide, Phosphorothioate single-stranded antisense oligonucleotides complementary to human FMRP]”, the FMRP expression result in data set [1] (DLD-1 cells, FIG. 3D) is listed as “significantly inhibited FMRP expression”; in data set [1] (HCEC-1ct cells, FIG. 3I), “significantly inhibited FMRP expression”; in data set [1] (HCT-116 cells, FIG. 3G) it was “significantly inhibited FMRP expression”. Also, the “percentage of activated caspase 3-positive cells” value in data set [2] is “did not alter”. The “phosphorylation of RIPK3” value in data set [3] is listed as “increased phosphorylation”. The E-cadherin protein expression result in data set [4] is recorded as “significantly increased”. Besides, the β-catenin protein expression entry in data set [5] is listed as “significantly increased”. For the same substance, the MCC protein expression entry in data set [6] was “significantly increased expression of MCC”.
